Key:
[1] = system: NS-20Y (mouse neuroblastoma cells); experiment: Activity on NS-20Y cells: appearance of neurites; format: cell-based
Procedure, shortened: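 Mouse neuroblastoma NS-20Y cells were grown in polyornithine-coated dishes in DMEM with 10 % FCS, 100 units/ml penicillin G sodium and 100 micrograms/ml streptomycin sulfate, at 37° C under 5 % carbon dioxide, and exposed to compound. Cells were fixed with 4 % glutaraldehyde, stained with 0.05 % methylene blue, and the fraction bearing neurites at least twice the cell's long diameter was counted microscopically.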

[2] = system: neuro-2a (mouse neuroblastoma cells); experiment: Action on neuro-2a: proportion of cells containing outgrown neurites; format: cell-based; details: mean ± S.D.
Procedure, shortened: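 Read-out is the percentage of neurite-bearing cells (neurite ≥2× long cell diameter), counted microscopically over more than 200 cells per well. Before fixation and staining, neuro-2a cells (1,000/well, DMEM + 10% FCS) were cultured for one day at 37 °C; up to six compound concentrations, three runs each.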

Acute toxicity on mice = format: in vivo; details: mouse, in vivo, ip, 24 hours after administration; read-out: Estimated LD50
Method: The acute toxicity of the compounds of the invention was examined by the following method.
Male ddy-strain 5-week old mice, 4-6- per group, were used as experimental animals. Each of the compounds was intraperitoneally (i.p.), and the toxicity of the compound was assessed 24 hours after the administration.

Row | SMILES | Number of cells having neurites with a length at least two times the diameter of each cell/total number of cells ([2]; 0.1 mM) [%] | Number of cells having neurites with a length at least two times the diameter of each cell/total number of cells ([2]; 0.3 mM) [%] | LD50 at 24 h (Acute toxicity on mice) [mg/kg] | Number of cells in which neurites appeared/total number of cells ([1]; 24 hours, 0.1 mM) | Number of cells in which neurites appeared/total number of cells ([1]; 48 hours, 0.1 mM) | Number of cells having neurites with a length at least two times the diameter of each cell/total number of cells ([2]; 0.03 mM) [%] | Number of cells having neurites with a length at least two times the diameter of each cell/total number of cells ([2]; 1 mM) [%] | further results
1 | CN(C(=O)c1ccccc1)c1nccc(N2CCCCC2)n1 [Compound 604] | 18.7 ± 4.1 | 24.6 ± 2.9 | < 500 | – | – | – | – | Number of cells in which neurites appeared/total number of cells ([1]; 24 hours, 0.02 mM): 6/50; Number of cells in which neurites appeared/total number of cells ([1]; 24 hours, 0.4 mM): 7/50; Number of cells in which neurites appeared/total number of cells ([1]; 48 hours, 0.02 mM): 2/50
2 | CN(C(=O)c1ccccc1)c1ccnc(N2CCCCC2)n1 [Compound 136] | 11.6 ± 6.3 | 12.1 ± 2.9 | > 1000 | 9/50 | – | – | – | Number of cells in which neurites appeared/total number of cells ([1]; 24 hours, 0.4 mM): 42/50; Number of cells in which neurites appeared/total number of cells ([1]; 48 hours, 0.4 mM): 15/50
3 | CN(C(=O)c1ccccc1)c1ccnc(N2CCN(C(c3ccccc3)c3ccc(Cl)cc3)CC2)n1 (centres unmarked) [Compound 376] | 14.7 ± 1.5 | 17.2 ± 1.4 | 500 to 1000 | – | 2/50 | 13.6 ± 1.2 | 16.4 ± 3.0 | Number of cells in which neurites appeared/total number of cells ([1]; 24 hours, 0.2 mM): 2/50
4 | CCN(C(=O)c1ccccc1)c1ccnc(N2CCC(c3ccccc3)CC2)n1 [Compound 176] | 3.2 ± 3.1 | – | > 1000 | 8/50 | – | 5.3 ± 1.9 | – | Number of cells in which neurites appeared/total number of cells ([1]; 48 hours, 0.02 mM): 2/50
5 | CC1CCN(c2ccnc(N(C)C(=O)c3ccccc3)n2)CC1 [Compound 612] | 19.4 ± 3.9 | 22.4 ± 2.4 | 500 to 1000 | 2/50 | 2/50 | 19.1 ± 3.0 | – | Number of cells having neurites with a length at least two times the diameter of each cell/total number of cells ([2]; 0.01 mM): 13.8 ± 1.5%
6 | COc1ccc(C(=O)N(C)c2ccnc(N3CCC(c4ccccc4)CC3)n2)cc1 [Compound 272] | 30.9 ± 2.8 | 15.9 ± 0.5 | > 1000 | 33/50 | 17/50 | 4.8 ± 1.3 | 17.0 ± 4.3 | Number of cells in which neurites appeared/total number of cells ([1]; 24 hours, 0.2 mM): 24/50
7 | CN(C(=O)c1ccccc1)c1ccnc(N2CCC(Cc3ccccc3)CC2)n1 [Compound 304] | 38.1 ± 1.6 | 15.3 ± 6.3 | > 1000 | 40/50 | – | – | – | Number of cells in which neurites appeared/total number of cells ([1]; 48 hours, 0.01 mM): 3/50
8 | CN(C(=O)c1ccccc1)c1ccnc(N2CCN(Cc3ccccc3)CC2)n1 [Compound 368] | 9.0 ± 1.8 | – | 500 to 1000 | 14/50 | 5/50 | 3.5 ± 0.5 | – | Number of cells in which neurites appeared/total number of cells ([1]; 48 hours, 0.05 mM): 8/51
9 | CC(=O)N(C)c1ccnc(N2CCCc3ccccc32)n1 [Compound 320] | 7.2 ± 0.2 | 8.5 ± 1.1 | > 1000 | 8/50 | 6/50 | – | – | –
10 | CN(C(=O)c1ccc([N+](=O)[O-])cc1)c1ccnc(N2CCC(c3ccccc3)CC2)n1 [Compound 264] | 5.2 ± 3.1 | 8.7 ± 1.6 | 500 to 1000 | – | – | – | 15.2 ± 3.2 | Number of cells in which neurites appeared/total number of cells ([1]; 24 hours, 0.4 mM): 8/48; Number of cells in which neurites appeared/total number of cells ([1]; 48 hours, 0.4 mM): 4/50; Number of cells having neurites with a length at least two times the diameter of each cell/total number of cells ([2]; 3 mM): 7.2 ± 1.8%
11 | CN(C(=O)c1ccccc1)c1ccnc(N2CCCC2)n1 [Compound 120] | 4.9 ± 1.0 | 7.5 ± 4.1 | > 1000 | – | – | – | – | Number of cells in which neurites appeared/total number of cells ([1]; 24 hours, 0.5 mM): 23/50; Number of cells in which neurites appeared/total number of cells ([1]; 48 hours, 0.5 mM): 4/50
12 | CN(C(=O)c1ccc(-c2ccccc2)cc1)c1ccnc(N2CCC(c3ccccc3)CC2)n1 [Compound 288] | 3.3 ± 0.9 | 3.8 ± 1.9 | 500 to 1000 | 2/52 | 2/50 | 1.4 ± 0.1 | 5.1 ± 2.7 | –
13 | CN1C(=O)Cc2cnc(N3CCN(C(c4ccccc4)c4ccccn4)CC3)nc21 (centres unmarked) [Compound 3192] | 9.7 ± 1.1 | 3.7 ± 3.2 | 500 to 1000 | – | – | – | – | Number of cells in which neurites appeared/total number of cells ([1]; 24 hours, 0.02 mM): 6/50; Number of cells in which neurites appeared/total number of cells ([1]; 48 hours, 0.02 mM): 4/50
14 | CN(C(=O)c1ccc(Cl)cc1)c1ccnc(N2CCC(c3ccccc3)CC2)n1 [Compound 240] | 38.7 ± 4.5 | 33.2 ± 0.9 | > 1000 | – | – | 19.8 ± 5.7 | 30.9 ± 5.9 | Number of cells in which neurites appeared/total number of cells ([1]; 24 hours, 0.2 mM): 4/50; Number of cells in which neurites appeared/total number of cells ([1]; 48 hours, 0.2 mM): 3/50
15 | CC1CCN(c2nccc(N(C)C(=O)c3ccccc3)n2)CC1 [Compound 144] | 13.7 ± 7.8 | 33.8 ± 8.6 | > 1000 | 37/50 | 31/50 | – | – | Number of cells in which neurites appeared/total number of cells ([1]; 48 hours, 0.025 mM): 6/50; Number of cells in which neurites appeared/total number of cells ([1]; 48 hours, 0.05 mM): 8/52
16 | O=C(Nc1ccnc(N2CCC(c3ccccc3)CC2)n1)c1ccccc1 [Compound 160] | 11.3 ± 6.3 | 6.7 ± 4.3 | > 1000 | – | – | – | – | Number of cells in which neurites appeared/total number of cells ([1]; 24 hours, 0.5 mM): 10/53; Number of cells in which neurites appeared/total number of cells ([1]; 48 hours, 0.5 mM): 2/50
17 | CC(=O)N(C)c1cc(C)nc(N2CCC(c3ccccc3)CC2)n1 [Compound 392] | 14.6 ± 6.0 | 30.9 ± 5.7 | 500 to 1000 | 8/50 | 3/43 | – | 23.8 ± 4.2 | Number of cells in which neurites appeared/total number of cells ([1]; 48 hours, 0.05 mM): 6/51; Number of cells having neurites with a length at least two times the diameter of each cell/total number of cells ([2]; 3 mM): 11.1 ± 9.7%
18 | O=C(c1ccccc1)N(Cc1ccccc1)c1ccnc(N2CCC(c3ccccc3)CC2)n1 [Compound 192] | – | 12.1 ± 1.5 | 500 to 1000 | – | – | – | 14.6 ± 1.0 | Number of cells in which neurites appeared/total number of cells ([1]; 24 hours, 0.4 mM): 23/50; Number of cells in which neurites appeared/total number of cells ([1]; 48 hours, 0.4 mM): 4/50
19 | CN(C(=O)c1ccccc1)c1ccnc(N2CCC(C(C)(C)C)CC2)n1 [Compound 152] | 33.8 ± 4.7 | – | > 1000 | – | – | 6.2 ± 2.3 | – | Number of cells in which neurites appeared/total number of cells ([1]; 24 hours, 0.05 mM): 3/50; Number of cells in which neurites appeared/total number of cells ([1]; 48 hours, 0.025 mM): 2/50

From US5147876A, “2,6-di,2,4,6-, 2,5,6-tri and 2,4,5,6-tetra-substituted pyrimidines, their pharmaceutically acceptable salts, pharmaceutical compositions containing same and their use in the treatment of neurological diseases” (Mitsui Petrochemical Industries, Ltd., priority 1988, dated 1992)
